Test results: US7384639B2, “Methods of treating or preventing an infectious disease using an immunogenic conjugate of a gram-negative bacterial autoinducer molecule” (University of Rochester, priority 1998, dated 2008)

Key:
[1] = test system: LasR; assay: microbe, parasite or virus in culture; format: cell-based; settings: Pseudomonas aeruginosa, read-out: concentration that stimulates half-maximal activity
Description: Positive clones were tested in a Pseudomonas aeruginosa bioassay. PAC-JP2 (bearing the lasI/rhII double deletion) produces no PAI-1 but retains the ability to produce LasR. When PAI-1 is added exogenously, it can bind to LasR and induce the transcription of lasI. Test samples containing 40 nM PAI-1 (the concentration that stimulates half-maximal activity in this assay) were preincubated at 37° C. with anti-PAI-1 monoclonal antibody (618.4). Control samples containing 40 nm PAI-1 were preincubated at 37° C. with an equal volume of PBS. Following preincubation, the samples were tested in a Pseudomonas aeruginosa bioassay using PAO-JP2 containing a plasmid with a lasI/LacZ fusion. When the bacteria reached on OD600 of 0.8-1.0, the samples were assayed for the production of β-galactosidase, which was expressed as Miller Units of activity.

[2] = test system: lasI/lasZ transcriptional fusion (lasR); settings: λI14-MG4 (pPCS1), Seed et al., 1995, cited from earlier work
[3] = test system: lymphocytes; settings: in vivo (so in the source); Telford et al., 1998; cited from earlier work
[4] = test system: tumor necrosis factor and interleukin-12; settings: Telford et al., 1998; cited from earlier work

For `CCCCCCCCCC(=O)CC(=O)NC1CCOC1=O` [PAI-1, N-(3-oxo)-dodecanoyl-L-homoserine lactone], the EC50 [1] is listed as 40 nM, the “lowest PAI-1 concentration that activates the construct” value [2] is listed as 10 pM and the EC50 ([2]; read-out: PAI-1 concentration for half-maximal expression) is listed as 0.1 nM. The “effect on proliferation of lymphocytes” value [3] was “inhibit the proliferation of lymphocytes” and the “effect on expression of tumor necrosis factor and interleukin-12” value [4] was “downregulates expression”.
